Data from patent US11034685B2, “Aminopyridine derivatives as TAM family kinase inhibitors” (SignalChem Lifesciences Corporation, priority 2013, dated 2021).

Legend:
Format in all cases: biochemical
[1] = molecular target: T1, Recombinant human Tyro3 (455-end) (Homo sapiens, UniProt Q06418); assay: Kinase enzymatic activity assay ([33P]-ATP phosphate transfer), Tyro3; conditions: inhibitory activity on Tyro3; class symbols
T1 construct: GST (N); made in house; host or cells: Sf9 insect cells (baculovirus)
T1 sequence (Q06418 455-890 limits assumed): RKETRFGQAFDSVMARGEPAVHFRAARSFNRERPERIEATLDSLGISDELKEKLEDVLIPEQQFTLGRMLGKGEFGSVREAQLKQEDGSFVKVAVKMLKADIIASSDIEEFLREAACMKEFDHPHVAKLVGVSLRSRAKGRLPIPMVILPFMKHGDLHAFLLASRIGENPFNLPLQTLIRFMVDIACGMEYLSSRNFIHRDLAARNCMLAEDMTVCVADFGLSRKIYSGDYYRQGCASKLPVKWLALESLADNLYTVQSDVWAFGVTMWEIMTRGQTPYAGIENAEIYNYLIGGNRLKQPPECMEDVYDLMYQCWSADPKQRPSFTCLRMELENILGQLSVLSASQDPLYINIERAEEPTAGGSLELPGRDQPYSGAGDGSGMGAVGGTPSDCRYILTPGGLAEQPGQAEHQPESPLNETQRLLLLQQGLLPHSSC
Method: (§1) Preparation of Active Recombinant Kinase Proteins:
(§2) Recombinant human Tyro3 (455-end, the gene accession number NM_006293), human Axl (473-end, the gene accession number NM_021913) and human Mer (578-872, the gene accession number NM_006343) were independently expressed by baculovirus in Sf9 insect cells using an N-terminal GST tag. The recombinant proteins were stored at −70° C. in a medium containing 50 mM Tris-HCl, pH 7.5, 150 mM NaCl, 10 mM glutathione, 0.1 mM EDTA, 0.25 mM DTT, 0.1 mM PMSF and 25% glycerol. The recombinant proteins were aliquoted into smaller quantities after centrifugation to avoid repeated handling and multiple freeze/thaw cycles for the most favorable performance.
(§3) Preparation of Assay Reagents:
(§4) Kinase Assay Buffer: This buffer solution consisted of the following components: 25 mM MOPS, pH 7.2, 12.5 mM β-glycerol-phosphate, 25 mM MgCl2, 5 mM EGTA, 2 mM EDTA and DTT 0.25 mM which was added prior to use.
(§5) Kinase Dilution Buffer: Kinase Assay Buffer was diluted at a 1:4 ratio (5× dilution) with distilled water.
(§6) [^33P]-ATP assay cocktail: In a designated radioactive working area, a 250 μM [^33P]-ATP assay cocktail was prepared by the addition of the following components: 150 μL of 10 mM ATP stock solution, 100 μL [^33P]-ATP (1 mci/100 μL), 5.75 mL of kinase assay buffer. This solution was stored in 1 mL aliquots at −20 OC.
(§7) ATP stock solution (10 mM): The ATP stock solution was prepared by dissolving 55 mg of ATP in 10 mL of kinase assay buffer. It was stored in 200 μL aliquots at −20° C.
(§8) Active Kinase Stock Solution: The active recombinant kinase protein (0.1 μg/μL) was diluted with Kinase Dilution Buffer and the activity was assayed using a serial dilution method. The specific activity is expressed in nmoL/min/mg.
(§9) Substrates: poly(4:1 glu:tyr) is the substrate used for each kinase Tyro3, Axl and Mer: The peptide substrate was dissolved in water to give the final concentration of 1 mg/mL.
(§10) Test compound solution: Test compound was dissolved in DMSO to obtain a 10 mM solution. The assay solution was prepared by adding 5 μL of this solution to […] of 10% DMSO/water to obtain the final concentration of 50 μM.
(§11) The enzymatic activity of all three kinases was determined as follows. Using a 96-well plate, the wells were divided into three categories: Blank wells, […] and Test wells. In Test wells, 5 μL of the test compound solution and 5 μL of the substrate solution were added. In Control wells, 5 μL of 10% DMSO/water and 5 μL of the substrate solution were added. In Blank wells, 10 μL of 10% DMSO/water was added. To each well was added 10 μL of Active Kinase Stock Solution to make up the volume in each well to 20 μL. All test samples, controls and blanks were run in duplicate. The reaction was initiated by the addition of 5 μL of [^33P]-ATP assay cocktail, bringing the final volume up to 25 μL in every well. The mixture was incubated at room temperature for 30 minutes. The reaction was terminated by transferring 10 μL of the reaction mixture into a Millipore MultiScreen filter plate (cat. number MSPHN6B50). The filter plate was washed in a 1% phosphoric acid solution with constant gentle shaking for 15 minutes and this step was repeated once. After the plate was dried in air, scintillation fluid was added to each well and the radioactivity in each well in CPM was counted by a Microbeta TriLux. The corrected CPM in each test well was determined by subtracting the average value of Blank well values. Percentage of inhibition of the kinase enzymatic activity by the test compound was determined using the following formula: […]
(§12) The IC50 values were determined in a similar way following a serial dilution of the test compound. The percentage of inhibition at each concentration was calculated following the above formula. The IC50 was estimated from the curve of % Inhibition against Concentration in log unit using Prism 5, version 5.01.

[2] = molecular target: T2, human Axl (473-end) (Homo sapiens, UniProt P30530); assay: Kinase enzymatic activity assay ([33P]-ATP phosphate transfer), Axl; conditions: inhibitory activity on Axl; class symbols
T2 construct: GST (N); made in house; host or cells: Sf9 insect cells (baculovirus)
T2 sequence (P30530 473-894 limits assumed): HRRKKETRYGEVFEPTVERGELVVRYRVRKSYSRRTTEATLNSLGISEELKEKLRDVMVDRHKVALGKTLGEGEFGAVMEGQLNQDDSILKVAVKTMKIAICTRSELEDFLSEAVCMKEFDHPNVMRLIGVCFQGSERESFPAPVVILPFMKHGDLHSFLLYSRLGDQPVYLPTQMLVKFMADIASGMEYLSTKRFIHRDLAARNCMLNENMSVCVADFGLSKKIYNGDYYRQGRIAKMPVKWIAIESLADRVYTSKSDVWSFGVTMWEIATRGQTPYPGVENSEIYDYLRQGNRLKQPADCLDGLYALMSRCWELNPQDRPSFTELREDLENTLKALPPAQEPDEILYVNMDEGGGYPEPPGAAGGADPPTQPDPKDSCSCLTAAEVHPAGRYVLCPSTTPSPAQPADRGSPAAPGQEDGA
Method: as §1, §2, §3, §4, §5, §6, §7, §8, §9, §10, §11, §12

[3] = molecular target: T3, human Mer (578-872) (Homo sapiens, UniProt Q12866); assay: Kinase enzymatic activity assay ([33P]-ATP phosphate transfer), Mer; conditions: inhibitory activity on Mer; class symbols
T3 construct: GST (N); made in house; host or cells: Sf9 insect cells (baculovirus)
T3 sequence (Q12866 578-872): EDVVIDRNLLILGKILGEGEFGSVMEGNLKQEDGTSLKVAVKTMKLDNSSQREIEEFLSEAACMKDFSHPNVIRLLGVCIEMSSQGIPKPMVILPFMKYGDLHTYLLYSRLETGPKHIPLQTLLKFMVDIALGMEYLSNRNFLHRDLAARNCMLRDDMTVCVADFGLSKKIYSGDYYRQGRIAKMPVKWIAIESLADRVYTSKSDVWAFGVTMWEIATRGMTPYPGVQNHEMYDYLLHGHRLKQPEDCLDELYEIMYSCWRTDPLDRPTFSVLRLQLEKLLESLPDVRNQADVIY
Method: as §1, §2, §3, §4, §5, §6, §7, §8, §9, §10, §11, §12

| IC50 [1] | IC50 [2] | IC50 [3] | Compound |
| --- | --- | --- | --- |
| 1000 to 10000 nM | 500 to 1000 nM | < 500 nM | CC(C)(C)OC(=O)N1CCC(n2cc(-c3cnc(N)c(-c4nnc(-c5ccc(C(C)(C)C)cc5)o4)c3)cn2)CC1 |
| 500 to 1000 nM | < 500 nM | < 500 nM | CC(C)CCC(=O)N1CCC(n2cc(-c3cnc(N)c(-c4nnc(-c5c(Cl)cccc5Cl)o4)c3)cn2)CC1 [1-(4-(4-(6-amino-5-(5-(2,6-dichlorophenyl)-1,3,4-oxadiazol-2-yl)pyridin-3-yl)-1H-pyrazol-1-yl)piperidin-1-yl)-4-methylpentan-1-one] |
| < 500 nM | < 500 nM | < 500 nM | CC(=O)N1CCC(n2cc(-c3cnc(N)c(-c4nnc(-c5c(Cl)cccc5Cl)o4)c3)cn2)CC1 [1-(4-(4-(6-amino-5-(5-(2,6-dichlorophenyl)-1,3,4-oxadiazol-2-yl)pyridin-3-yl)-1H-pyrazol-1-yl)piperidin-1-yl)ethanone] |
| < 500 nM | < 500 nM | 1000 to 10000 nM | CC(C)(C)C(=O)N1CCC(n2cc(-c3cnc(N)c(-c4ncc(-c5cccc(Cl)c5)o4)c3)cn2)CC1 [1-(4-(4-(6-amino-5-(5-(3-chlorophenyl)oxazol-2-yl)pyridin-3-yl)-1H-pyrazol-1-yl)piperidin-1-yl)-2,2-dimethylpropan-1-one] |
| > 10000 nM | > 10000 nM | > 10000 nM | CC(=O)N1CCC(n2cc(-c3cnc(N)c(-c4ncc(-c5ccc(Cl)cc5)o4)c3)cn2)CC1 [1-(4-(4-(6-amino-5-(5-(4-chlorophenyl)oxazol-2-yl)pyridin-3-yl)-1H-pyrazol-1-yl)piperidin-1-yl)ethanone] |
| 1000 to 10000 nM | 500 to 1000 nM | – | CC(C)(C)OC(=O)N1CCC(n2cc(-c3cnc(N)c(-c4nnc(-c5c(Cl)cccc5Cl)o4)c3)cn2)CC1 [tert-butyl 4-(4-(6-amino-5-(5-(2,6-dichlorophenyl)-1,3,4-oxadiazol-2-yl)pyridin-3-yl)-1H-pyrazol-1-yl)piperidine-1-carboxylate] |

More lines, now with the values behind:

| Compound | IC50 [1] | IC50 [2] | IC50 [3] |
| --- | --- | --- | --- |
| Nc1ncc(-c2cnn(C3CCOCC3)c2)cc1-c1ncc(-c2ccc(Cl)cc2)o1 | > 10000 nM | > 10000 nM | > 10000 nM |
| Nc1ncc(-c2cnn(C3CCNCC3)c2)cc1-c1nnc(C2CCCCC2)o1 | < 500 nM | < 500 nM | < 500 nM |
| CCCCCCCCCCCCN1CCC(n2cc(-c3cnc(N)c(-c4ncc(-c5ccccc5)o4)c3)cn2)CC1 | < 500 nM | < 500 nM | 500 to 1000 nM |
| Nc1ncc(-c2cnn(C3CCN(C(=O)c4ccccc4)CC3)c2)cc1-c1ncc(-c2cccc(Cl)c2)o1 | < 500 nM | < 500 nM | 1000 to 10000 nM |
| Nc1ncc(-c2cnn(C3CCN(C(=O)Cc4ccccc4)CC3)c2)cc1-c1nc(-c2ccccc2)no1 [1-(4-(4-(6-amino-5-(3-phenyl-1,2,4-oxadiazol-5-yl)pyridin-3-yl)-1H-pyrazol-1-yl)piperidin-1-yl)-2-phenylethanone] | 1000 to 10000 nM | 500 to 1000 nM | 1000 to 10000 nM |
| CC(=O)N1CCC(n2cc(-c3cnc(N)c(-c4nc(-c5ccccc5)no4)c3)cn2)CC1 [1-(4-(4-(6-amino-5-(3-phenyl-1,2,4-oxadiazol-5-yl)pyridin-3-yl)-1H-pyrazol-1-yl)piperidin-1-yl)ethanone] | < 500 nM | < 500 nM | < 500 nM |
| Nc1ncc(-c2cnn(C3CCN(C(=O)Cc4ccccc4)CC3)c2)cc1-c1nnc(-c2c(Cl)cccc2Cl)o1 [1-(4-(4-(6-amino-5-(5-(2,6-dichlorophenyl)-1,3,4-oxadiazol-2-yl)pyridin-3-yl)-1H-pyrazol-1-yl)piperidin-1-yl)-2-phenylethanone] | 1000 to 10000 nM | 1000 to 10000 nM | 1000 to 10000 nM |
| Nc1ncc(-c2cnn(C3CCN(C(=O)Cc4ccccc4)CC3)c2)cc1-c1ncc(-c2cccc(Cl)c2)o1 [1-(4-(4-(6-amino-5-(5-(3-chlorophenyl)oxazol-2-yl)pyridin-3-yl)-1H-pyrazol-1-yl)piperidin-1-yl)-2-phenylethanone] | < 500 nM | < 500 nM | 1000 to 10000 nM |
| CC(=O)N1CCC(n2cc(-c3cnc(N)c(-c4ncc(-c5cccc(Cl)c5)o4)c3)cn2)CC1 [1-(4-(4-(6-amino-5-(5-(3-chlorophenyl)oxazol-2-yl)pyridin-3-yl)-1H-pyrazol-1-yl)piperidin-1-yl)ethanone] | < 500 nM | < 500 nM | < 500 nM |
| Nc1ncc(-c2cnn(C3CCN(C(=O)Cc4ccccc4)CC3)c2)cc1-c1ncc(-c2ccc(Cl)cc2)o1 [1-(4-(4-(6-amino-5-(5-(4-chlorophenyl)oxazol-2-yl)pyridin-3-yl)-1H-pyrazol-1-yl)piperidin-1-yl)-2-phenylethanone] | < 500 nM | < 500 nM | 1000 to 10000 nM |
| Nc1ncc(-c2cnn(C3CCNCC3)c2)cc1-c1nnc(-c2cc(F)ccc2F)o1 [3-(5-(2,5-difluorophenyl)-1,3,4-oxadiazol-2-yl)-5-(1-(piperidin-4-yl)-1H-pyrazol-4-yl)pyridin-2-amine] | < 500 nM | < 500 nM | – |
| Nc1ncc(-c2cnn(C3CCNCC3)c2)cc1-c1nnc(-c2c(Cl)cccc2Cl)o1 [3-(5-(2,6-dichlorophenyl)-1,3,4-oxadiazol-2-yl)-5-(1-(piperidin-4-yl)-1H-pyrazol-4-yl)pyridin-2-amine] | < 500 nM | < 500 nM | – |
